{"source": "ChEMBL document CHEMBL1141637", "about": "“Synthesis and anti-inflammation evaluation of new C60 fulleropyrrolidines bearing biologically active xanthine” (2008)", "key": {"J774.A1 [1]": {"system": "J774.A1", "assay": "Reduction of LPS-induced TNFalpha production in mouse J774A.1 cells at 10 uM after 3 hrs by ELISA relative to control", "format": "functional", "set-up": "scale not given: the % may be the effect or the level left"}, "J774.A1 [2]": {"system": "J774.A1", "assay": "Reduction of LPS-induced nitric oxide production in mouse J774A.1 cells at 10 uM after 3 hrs relative to control", "format": "functional", "set-up": "scale not given: the % may be the effect or the level left"}}, "data": [{"smiles": "CC(=O)CCCCn1c(=O)c2c(ncn2C)n(C)c1=O", "note": "[PENTOXIFYLLINE]", "values": [{"measurement": "Activity", "setting": "J774.A1 [1]", "result": 7.5, "unit": "%"}, {"measurement": "Activity", "setting": "J774.A1 [2]", "result": 33.9, "unit": "%"}]}]}
